Biological target: Trypanosoma cruzi glucokinase (TcGlcK) (Trypanosoma cruzi, UniProt Q4E4E1)
Experiment: Determination of Ki values by type 1 and type 2 Dixon plots;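 further: compounds supplied as 10 mM DMSO stocks (100 µL format), with a non-inhibitory compound run alongside for comparison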
Format: biochemical
Details: not given

Trypanosoma cruzi glucokinase (TcGlcK), sequence (Q4E4E1 1-376): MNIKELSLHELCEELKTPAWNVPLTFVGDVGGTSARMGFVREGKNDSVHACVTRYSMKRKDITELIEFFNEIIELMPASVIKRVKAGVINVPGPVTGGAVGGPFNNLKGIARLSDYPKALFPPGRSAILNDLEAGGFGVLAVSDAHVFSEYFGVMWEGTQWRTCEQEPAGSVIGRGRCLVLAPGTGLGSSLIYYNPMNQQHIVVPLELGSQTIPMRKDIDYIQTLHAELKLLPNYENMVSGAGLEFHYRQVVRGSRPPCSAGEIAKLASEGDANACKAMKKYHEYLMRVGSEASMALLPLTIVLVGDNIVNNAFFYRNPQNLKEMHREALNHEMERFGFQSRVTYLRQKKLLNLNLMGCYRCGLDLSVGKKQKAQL

`Cc1cc2nc[nH]c2c(/N=C/c2c(O)c(O)c(C(C)C)c3cc(C)c(-c4c(C)cc5c(C(C)C)c(O)c(O)c(/C=N/c6c(C)c(C)cc7nc[nH]c67)c5c4O)c(O)c23)c1C` (atropisomer, axis not shown) [Inhibitor 86] and `Cc1ccc(O)c(/N=C/c2c(O)c(O)c(C(C)C)c3cc(C)c(-c4c(C)cc5c(C(C)C)c(O)c(O)c(/C=N/c6cc(C)ccc6O)c5c4O)c(O)c23)c1` (atropisomer, axis not shown) [Inhibitor 54] are within 1.5-fold of each other in Ki: 2.58 µM for the first, 3.02 µM for the second.

First: Cc1cc2c(C(C)C)c(O)c(O)c(/C=N/NCc3ccccc3Cl)c2c(O)c1-c1c(C)cc2c(C(C)C)c(O)c(O)c(/C=N/NCc3ccccc3Cl)c2c1O [Inhibitor 8]
Second: Cc1cc2c(C(C)C)c(O)c(O)c(/C=N/CCOc3ccccc3F)c2c(O)c1-c1c(C)cc2c(C(C)C)c(O)c(O)c(/C=N/CCOc3ccccc3F)c2c1O (atropisomer, axis not shown) [Inhibitor 76]
The Ki of the first is 1.9-fold lower: 56.3 µM for the first, 105 µM for the second. The first binds more tightly here.

Compared with `Cc1cc2c(c(O)c1-c1c(C)cc3c(c1O)/C(=C/Nc1ccc(S(N)(=O)=O)cc1)C(=O)C(O)=C3C(C)C)/C(=C/Nc1ccc(S(N)(=O)=O)cc1)C(=O)C(O)=C2C(C)C` (atropisomer, axis not shown) [Inhibitor 25], `Cc1cc2c(c(O)c1-c1c(C)cc3c(c1O)/C(=C\Nc1ccc(S(=O)(=O)NC(=N)N)cc1)C(=O)C(O)=C3C(C)C)/C(=C/Nc1ccc(S(=O)(=O)NC(=N)N)cc1)C(=O)C(O)=C2C(C)C` [Inhibitor 16] is 72-fold lower in Ki: 74.3 µM for the first, 1.03 µM for the second.

Compared with `Cc1cc(C(=O)N/N=C/c2c(O)c(O)c(C(C)C)c3cc(C)c(-c4c(C)cc5c(C(C)C)c(O)c(O)c(/C=N/NC(=O)c6cc(C)[nH]n6)c5c4O)c(O)c23)n[nH]1` [Inhibitor 4], `Cc1ccc(OCC/N=C/c2c(O)c(O)c(C(C)C)c3cc(C)c(-c4c(C)cc5c(C(C)C)c(O)c(O)c(/C=N/CCOc6ccc(C)cc6)c5c4O)c(O)c23)cc1` [Inhibitor 10] is 5.6-fold lower in Ki: 19.1 µM for the first, 3.4 µM for the second.

Going from `Cc1cc2c(C(C)C)c(O)c(O)c(/C=N/CC34CC5CC(C)(CC(C)(C5)C3)C4)c2c(O)c1-c1c(C)cc2c(C(C)C)c(O)c(O)c(/C=N/C34CC5CC(C)(CC(C)(C5)C3)C4)c2c1O` [Inhibitor 50] to `Cc1cc2c(c(O)c1-c1c(C)cc3c(c1O)/C(=C\Nc1c(O)cc(S(=O)(=O)O)c4ccccc14)C(=O)C(O)=C3C(C)C)/C(=C/Nc1c(O)cc(S(=O)(=O)O)c3ccccc13)C(=O)C(O)=C2C(C)C` [Inhibitor 29], the Ki falls from 51.3 µM to 9.6 µM (5.3-fold). The second binds more tightly here.

Compound `COc1cc(NS(=O)(=O)c2ccc(N/C=C3\C(=O)C(O)=C(C(C)C)c4cc(C)c(-c5c(C)cc6c(c5O)/C(=C/Nc5ccc(S(=O)(=O)Nc7cc(OC)nc(OC)n7)cc5)C(=O)C(O)=C6C(C)C)c(O)c43)cc2)nc(OC)n1` (atropisomer, axis not shown) [Inhibitor 20] has a Ki of 11.2 µM.

Same assay, conditions: type 1 and type 2 Dixon plots; comparison compound

`Cc1cc2c(C(C)C)c(O)c(O)c(/C=N/NC(N)=S)c2c(O)c1-c1c(O)cc2c(/C=N/NC(N)=S)c(O)c(O)c(C(C)C)c2c1C` [comparative compound, reference compound] was tested, and the “inhibition (Dixon plots)” value was “does not exhibit inhibition”.

Reference: US20250114359A1, “METHODS FOR […] G[…]/OR HEXOKINASE” (UNIVERSITY OF SOUTH CAROLINA, priority 2023, published 2025)
